Results on three molecules are retold here after patent US20130131062A1, “PYRIDAZINONES AND FURAN-CONTAINING COMPOUNDS” (priority 2006, published 2013).

Like-named read-outs stand apart in the source and are kept apart here. Bounds are passed on as bounds.

One series deals with HPL1D. Description: Sensitivity of cell proliferation to erlotinib. The settings on record: Homo sapiens, read-out: IC50 (Erlotinib) HPL1D; EGFR WT, KRAS WT. The format is cell-based. From the text: (§1) NHBE (normal human bronchiolar epithelial cells) are primary cells obtained from donor lungs and commercially available from Cambrex. The HPLID (human peripheral lung epithelial) cell line has been immortalized with the SV40 large T-antigen. WI-38: human lung fibroblast cell line. HPLID, NHBE and WI-38 cells will serve as controls in the chemical screens. WT: wildtype; WT*: over-expressed wildtype.

The nature of a further series: in vitro. The conditions noted are these: human. As to the method:
as §1
Compounds were tested in dose response studies from 10 μM to 5 nM against several non small cell lung cancer lines: H358, H827, H1118, H1650, H1734, H1975, H2030, and H3255, and were also studied in a 72 hour cytotoxicity assay against the NHBE and WI-38 cell lines.

In series [1] the test system is 15 non small cell lung cancer lines representing various EGFR and KRAS mutations. Description: Dose response studies against 15 NSCLC lines (alamar blue). In kind it is cell-based, human. The conditions noted are these: Homo sapiens. As to the method: Dose response studies against 34 compounds from the pyridazinone and phenylfuran-carboxamide class were conducted. […] In addition, Tarceva was included in these dose response studies.
The dose response studies were done with the following standard procedure. First, the cells were counted and dispensed at 250 cells/well into 384-well microplates with compound. The cells were incubated for 48 hours at 37 C to complete treatment, and then alamar blue was added for an additional 48 hours. Finally, alamar blue reduction was measured and the data was loaded into ORIS, our data screening acquisition platform.

For a further series, the system named is H1650. Nature of the series: Non Small Cell Lung Cancer Proliferation Assay (Alamar Blue). In kind it is cell-based, human. The conditions noted are these: Homo sapiens, NCI-H1650, dose response 10 μM to 5 nM. As to the method:
(§2) Non Small Cell Lung Cancer cell lines are grown and maintained in Corning 175 cm2 flasks in RPMI 1640 media supplemented with 10% FBS, 1% antibiotic solution, 1% additional glutamine and pyruvate. These cells have a doubling time of 1-2 days. All cell types are adherent and grow in colonies. The cells should be kept at a density between 50,000 cells/mL-500,000 cells/mL to provide for optimum growth and adequate nutrition. The cell line should be maintained at 37° C. in a humidified atmosphere with 5% CO2 in a sterile cell culture incubator.
(§3) To perform the assay, the Non Small Cell Lung Cancer lines are diluted in media and plated into 384 well microplates at a final density of 250 cells in 45 μL. To ensure consistency and minimal pipetting error, the cells are plated using the Multidrop 384 with the following settings: Rocker Switch set at 384, Volume 45 and Column 24.
(§4) Low Controls for this assay are made by treating Non Small Cell Lung Cancer cells with 5 ul of staurosporine at 250 uM in 10% DMSO and 1% SDS. [Final concentration in this assay is 25 uM staurosporine in 1% DMSO and 0.1% SDS.]
(§5) High Controls for this assay are made by treating Non Small Cell Lung Cancer cells with 5 ul of 10% DMSO. [Final concentration in this assay is 1% DMSO].
(§6) The remaining wells of the 384 microplate may be treated with different compounds depending on the study. Important Note: All compounds for testing in this assay should be done at the final concentration of 1% DMSO.
(§7) After addition, the cells are placed in cell culture incubator at 37° C. for 48 hours for complete treatment.
(§8) After drug treatment, cytotoxicity is measured by Alamar Blue reduction. 5 μL of Alamar Blue is added to the 384 microplates using the Flexdrop.
(§9) The cells are incubated for 48 hours at 37° C. to complete the Alamar Blue reduction.
(§10) The final step in the assay is to measure the amount of Alamar Blue reduction. […] The Alamar Blue fluorescence is measured at an excitation of 530 nm and emission of 590 nm.
(§11) For the NSCLC project, the cell based assay was screened against a small molecule library of approximately 200,000 compounds. The compound library is stored in our automated robotic freezer (Biophile) at −20° C. in 100% DMSO. Compound freeze and thaw cycles are kept to a minimum. Compounds for use are diluted into the appropriate concentration and plated into 384 well microplates using our custom built low volume 384-well head tool (TPS 384, Apricot Designs Inc., CA, USA). This assay was performed on a fully automated linear track robotic platform (CRS F3 Robot System, Thermo Electron Corp., Ontario, Canada) utilizing several integrated peripherals for plate handling, liquid dispensing, and readout detection. First, non-small cell lung cancer cell lines are dispensed into 384 well microplates (Corning #3712 Tissue Culture Treated Plate, Corning, N.Y., USA) with 5 μL of test compounds at 100 uM in 10% DMSO for screening studies or 1 mM in 10% DMSO to 50 nM in 10% DMSO for dose response studies. The microplates are then placed at 37° C. for 48 hours to complete treatment of cells with compounds. Next, 5 ul of alamar blue was added using a liquid dispenser (FlexDrop Precision Dispenser, Perkin Elmer, Mass., USA) and incubated for 48 hours at 37° C. The alamar blue prompt fluorescence was measured on Victor V (Victor^3 V, Perkin Elmer, Mass., USA) and output data files were loaded into ORIS (Oncology Research Informatics System, MSKCC, NY, USA), a screening data acquisition and analysis platform.
For orientation: The colour change of resazurin is a common sign of viable cells or microbes.

Another series relates to H1975. The description is as above. The format is cell-based, human. The settings on record: Homo sapiens, NCI-H1975, dose response 10 μM to 5 nM. As to the method:
as §2, §3, §4, §5, §6, §7, §8, §9, §10, §11

The next series relates to H2030. The description is as above. In kind it is cell-based, human. The settings on record: Homo sapiens, NCI-H2030, dose response 10 μM to 5 nM. As to the method:
(§12) These cells have a doubling time of 1-2 days. All cell types are adherent and grow in colonies. The cells should be kept at a density between 50,000 cells/mL-500,000 cells/mL to provide for optimum growth and adequate nutrition. The cell line should be maintained at 37° C. in a humidified atmosphere with 5% CO2 in a sterile cell culture incubator.
(§13) To perform the assay, the Non Small Cell Lung Cancer lines are diluted in media and plated into 384 well microplates at a final density of 250 cells in 45 μL.
as §5
(§14) Important Note: All compounds for testing in this assay should be done at the final concentration of 1% DMSO.
as §7
(§15) After drug treatment, cytotoxicity is measured by Alamar Blue reduction.
as §9, §10
as §11, with “Compounds for use are diluted into the appropriate concentration and plated into 384 well microplates using our custom built low volume 384-well head tool (TPS 384, Apricot Designs Inc., CA, USA).” left out, “First, non-small cell lung cancer cell lines are dispensed into 384 well microplates (Corning #3712 Tissue Culture Treated Plate, Corning, N.Y., USA) with 5 μL of test compounds at 100 uM in 10% DMSO for screening studies or 1 mM in 10% DMSO to 50 nM in 10% DMSO for dose response studies.” left out

The next series concerns H3255. Described as above. In kind it is cell-based, human. The conditions noted are these: Homo sapiens, NCI-H3255, dose response 10 μM to 5 nM. How it is done: as §12, §13, §5, §14, §7, §15, §9, §10
as §11, with “Compounds for use are diluted into the appropriate concentration and plated into 384 well microplates using our custom built low volume 384-well head tool (TPS 384, Apricot Designs Inc., CA, USA).” left out, “First, non-small cell lung cancer cell lines are dispensed into 384 well microplates (Corning #3712 Tissue Culture Treated Plate, Corning, N.Y., USA) with 5 μL of test compounds at 100 uM in 10% DMSO for screening studies or 1 mM in 10% DMSO to 50 nM in 10% DMSO for dose response studies.” left out

The next series relates to H358. Description: Non Small Cell Lung Cancer Proliferation Assay (Alamar Blue), dose response. The settings on record: Homo sapiens, NCI-H358, read-out: H358 Dose Response (uM).
The next series has as its system H827. Described as above. The conditions noted are these: Homo sapiens, read-out: H827 Dose Response (uM).
For a further series, the system named is H1118. Described as above. The conditions noted are these: Homo sapiens, read-out: H1118 Dose Response (uM).
In a further series the test system is H1734. The series is described as above. The settings on record: Homo sapiens, NCI-H1734, read-out: H1734 Dose Response (uM).

Description for H1118: (§16) This assay was performed on a fully automated linear track robotic platform (CRS F3 Robot System, Thermo Electron Corp., Ontario, Canada) utilizing several integrated peripherals for plate handling, liquid dispensing, and readout detection. […] The microplates are then placed at 37° C. for 48 hours to complete treatment of cells with compounds. Next, 5 ul of alamar blue was added using a liquid dispenser (FlexDrop Precision Dispenser, Perkin Elmer, Mass., USA) and incubated for 48 hours at 37° C. The alamar blue prompt fluorescence was measured on Victor V (Victor^3 V, Perkin Elmer, Mass., USA) and output data files were loaded into ORIS (Oncology Research Informatics System, MSKCC, NY, USA), a screening data acquisition and analysis platform. […]
Description for H1734: as §16
Description for H358: as §16
Description for H827: as §16

As to `C#Cc1cccc(Nc2ncnc3cc(OCCOC)c(OCCOC)cc23)c1` [Erlotinib, erlotinib], the IC50 in the series on HPL1D turned out to be 10 µM.
`Cc1cccc(-n2ncc(Cl)c(Cl)c2=O)c1` [compound 104122, 4,5-dichloro-2-m-tolyl-2H-pyridazin-3-one]: the IC50 at 72 h in “in vitro” (NHBE CytoTox (uM)) is 3.4 µM. Further, the IC50 in series [1] (read-out: IC50 H23) turned out to be 0.21 µM; in series [1] (read-out: IC50 H1118), 0.34 µM; in [1] (read-out: IC50 HPL1D), 0.28 µM; in series [1] (read-out: IC50 PC9), 0.65 µM.
For `CN/N=C1\C=NN(c2ccccc2)C(=O)C1Cl` (stereo not shown) [compound 257024], the IC50 with H1650, with H1975, in the series with H2030, in the series with H3255, with H358 and in the series with H827 was more than 10 µM throughout. Also, the IC50 in the series on H1118 and in the series with H1734 was more than 10 µM in each case. The IC50 at 72 h in “in vitro” and in the series “in vitro” (NHBE CytoTox (uM)) was more than 10 µM throughout.
